This note sets out measurements from patent publication US20220409727A1, “Metal Complexes Bearing Bisstyryl-Bipyridine Ligand and Their Use as Photosensitizer Agent in One and Two-Photon Photodynamic Therapy” (Paris Sciences et Lettres, priority 2019, published 2022).

Like-named read-outs stand apart in the source and are kept apart here.

In assay [1] the test system is human cervical carcinoma (HeLa) cells. Description: (Photo-)cytotoxicity on 2D cell monolayers, resazurin assay, HeLa. Format: cell-based. As to conditions: for PI (480 nm): dark vs 480 nm (10 min, 3.1 J/cm^2). The text has this:
Before an experiment, the cells were passaged three times.

Assay [2] concerns non-cancerous retinal pigment epithelium (RPE-1) cells. Description: (Photo-)cytotoxicity on 2D cell monolayers, resazurin assay, RPE-1.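 On all read-outs here: cells exposed to compound 4 h, medium exchanged, then irradiated or kept dark, 44 h further growth, viability by resorufin fluorescence (ex 540 nm, em 590 nm).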 The settings on record: for PI (480 nm): RPE-1, dark vs 480 nm (10 min, 3.1 J/cm^2). (Resazurin is reduced to fluorescent resorufin, in cell work by metabolically active cells.)
The next assay relates to HeLa MCTS. Description: (Photo-)cytotoxicity on 3D multicellular tumor spheroids (ATP, CellTiter-Glo 3D). Format: cell-based, human. The settings on record: for IC50: Homo sapiens. How it is done: autoclave. The hot emulsion was transferred into wells (50 μL per well) of a 96 cell culture well plate. The plates were exposed for 3 h to UV irradiation to ensure the sterility and allow the agarose solution to cool down. After this time, the agarose was overlayed with a HeLa cell suspension at a density of 3000 cells per well in 150 μL of media. The MCTS were cultivated and maintained at 37° C. in a cell culture incubator at 37° C. with 5% CO2 atmosphere. The culture media was replaced every two days. Within two-three days MCTs were formed from the cell suspension. The formation as well as integrity, diameter and volume of the MCTs was monitored by an Axio Observer Z1 (Carl Zeiss) phase contrast microscope. The volume was calculated using the following formula: V=4/3πr^3. The luminescence images along the z-axis were captured by a one-(λex=458 nm, λem=600-750 nm) or two-photon (λex=800 nm, λem=600-750 nm) excitation in the z-stack mode with a an LSM 880 (Carl Zeiss) laser scanning confocal microscope equipped with Argon and a Coherent Chameleon 2-Photon laser and a GaAsP detector.
The cytotoxicity of the compounds in 3D multicellular tumor spheroids (MCTS) was assessed by measurement of the ATP concentration. MCTS were treated with increasing concentrations of the compound (2% DMSO, v %) by replacing 50% of the media with drug supplemented media and incubation for 12 h. After this time, the MCTS were divided in three identical groups. The first group was strictly kept in the dark. The second group was exposed to a one-photon irradiation (500 nm, 10 J/cm^2) using a LED and the third group was exposed to a two-photon irradiation (800 nm, 10 J/cm^2) with a section interval of 5 μm using a LSM 880 (Carl Zeiss, Germany) laser scanning confocal microscope equipped with a Coherent Chameleon 2-Photon laser. After the irradiation, all groups were incubated additional 48 h. The ATP concertation was measured using a CellTiter-Glo 3D Cell Viability kit (Promega) by measuring the generated chemiluminescence with an infinite M200 PRO (Tecan) plate reader.
On the technique in general: Cellular ATP, detected with luciferase, serves as a proxy for viable cell number.

The test system of assay [3] is mouse colon carcinoma (CT-26) cells.
The test system of assay [4] is human glioblastoma astrocytoma (U373) cells. Description: (Photo-)cytotoxicity on 2D cell monolayers, resazurin assay, U373. As to conditions: for IC50: Homo sapiens, U373 MG.
The test system of assay [5] is mouse colon carcinoma (CT-26) cells. As to the kind of experiment: (Photo-)cytotoxicity on 2D cell monolayers, resazurin assay, CT-26. As to conditions: for IC50: Mus musculus.
Assay [6] has as its system human glioblastoma astrocytoma (U373) cells.
The mark [7] stands for this setting: dark, 4 h incubation, compounds 1-3 as chloride salts, read-out: IC50 dark.
[8] abbreviates: read-out: IC50 480 nm (10 min, 3.1 J/cm^2), irradiation 480 nm (10 min, 3.1 J/cm^2), compounds 1-3 as chloride salts.

Turning to `COc1ccccc1C=Cc1ccnc(-c2cc(C=Cc3ccccc3OC)ccn2)c1.F[P-](F)(F)(F)(F)F.F[P-](F)(F)(F)(F)F.[Ru+2].c1ccc(-c2ccccn2)nc1.c1ccc(-c2ccccn2)nc1` [Compound 13, [Ru(bpy)2((E,E′)-4,4′-Bis[o-methoxystyryl]-2,2′-bipyridine)][PF6]2], the figures for the “PI (480 nm)” value in assay [1] and in assay [2] were over 124 and over 66, respectively. Further, the IC50 in assay [1] (setting [7]) came to 62000 ± 10000 nM; in assay [1] (setting [8]), 500 ± 100 nM.

Regarding `COc1ccc(/C=C/c2ccnc(-c3cc(/C=C/c4ccc(OC)cc4)ccn3)c2)cc1.F[P-](F)(F)(F)(F)F.F[P-](F)(F)(F)(F)F.[Ru+2].c1cnc(-c2cnccn2)cn1.c1cnc(-c2cnccn2)cn1` [Compound 19, [Ru(bpz)2((E,E′)-4,4′-Bis[p-methoxystyryl]-2,2′-bipyridine)][PF6]2], in assay [1], the “PI (480 nm)” value is reported as over 2. Further, the IC50 was over 100000 nM in assay [1] (setting [7]) and 59000 ± 8000 nM in assay [1] (setting [8]).

Consider “[Ru(bpy)2((E,E′)-4,4′-Bis[p-aminostyryl]-2,2′-bipyridine)][PF6]2 [Compound 17]”, for which the “PI (480 nm)” value in assay [1] is reported as over 71; in assay [2], over 13. Also, the results for the IC50 in assay [1] (setting [7]) and in assay [1] (setting [8]) were over 100000 nM and 1400 ± 100 nM, respectively.

Turning to `C1=Cc2nc1c(-c1ccccc1)c1ccc([nH]1)c(-c1ccccc1)c1nc(c(-c3ccccc3)c3ccc([nH]3)c2-c2ccccc2)C=C1` [Compound H2TPP, tetraphenylporphyrin, reference compound], the IC50 with HeLa MCTS (dark, 12 h incubation, read-out: IC50 dark) is over 100000 nM; in the assay with HeLa MCTS (light or radiation study, 1-Photon irradiation (500 nm, 10 J/cm^2), read-out: IC50 1-Photon irradiation (500 nm, 10 J/cm^2)), over 100000 nM; in the assay with HeLa MCTS (light or radiation study, 2-Photon irradiation (800 nm, 10 J/cm^2, section interval of 5 μm), read-out: IC50 2-Photon irradiation (800 nm, 10 J/cm^2)), over 100000 nM. In addition, the “PI (2-Photon)” value in the assay with HeLa MCTS (dark vs 2-Photon irradiation (800 nm, 10 J/cm^2)) is listed as over 100.

With `COc1cccc(/C=C/c2ccnc(-c3cc(/C=C/c4cccc(OC)c4)ccn3)c2)c1.F[P-](F)(F)(F)(F)F.F[P-](F)(F)(F)(F)F.[Ru+2].c1ccc(-c2ccccn2)nc1.c1ccc(-c2ccccn2)nc1` [Compound 12, [Ru(bpy)2((E,E′)-4,4′-Bis[m-methoxystyryl]-2,2′-bipyridine)][PF6]2], the results for the “PI (480 nm)” value in assay [1] and in assay [2] were over 167 and over 63, respectively. The figures for the IC50 in assay [1] (setting [7]) and in assay [1] (setting [8]) were over 100000 nM and 600 ± 300 nM, respectively.

As to `COc1ccc(/C(C)=C/c2ccnc(-c3cc(/C=C(\C)c4ccc(OC)cc4)ccn3)c2)cc1.F[P-](F)(F)(F)(F)F.F[P-](F)(F)(F)(F)F.[Ru+2].c1ccc(-c2ccccn2)nc1.c1ccc(-c2ccccn2)nc1` [Compound 18], the “PI (480 nm)” value is reported as over 6 in assay [1] and over 3 in assay [2]. Also, the IC50 was over 100000 nM in assay [1] (setting [7]) and 16700 ± 700 nM in assay [1] (setting [8]).

For `COc1ccc(/C=C/c2ccnc(-c3cc(/C=C/c4ccc(OC)cc4)ccn3)c2)cc1.F[P-](F)(F)(F)(F)F.F[P-](F)(F)(F)(F)F.[Os+2].c1ccc(-c2ccccn2)nc1.c1ccc(-c2ccccn2)nc1` [Compound 16, [Os(bpy)2((E,E′)-4,4′-Bis[p-methoxystyryl]-2,2′-bipyridine)][PF6]2], the “PI (480 nm)” value in assay [1] is over 4; in assay [2], over 3. The IC50 in assay [1] (setting [7]) is over 100000 nM; in assay [1] (setting [8]), 27000 ± 6000 nM.

For `F[P-](F)(F)(F)(F)F.F[P-](F)(F)(F)(F)F.Oc1ccc(/C=C/c2ccnc(-c3cc(/C=C/c4ccc(O)cc4)ccn3)c2)cc1.[Ru+2].c1ccc(-c2ccccn2)nc1.c1ccc(-c2ccccn2)nc1` [Compound 15, [Ru(bpy)2((E,E′)-4,4′-Bis[p-hydroxystyryl]-2,2′-bipyridine)][PF6]2], the “PI (480 nm)” value in assay [1] is listed as over 100; in assay [2] it was over 9. In addition, the IC50 was over 100000 nM in assay [1] (setting [7]) and 1000 ± 300 nM in assay [1] (setting [8]).

For the compound `C=CC1=C(C)c2cc3[nH]c(cc4nc(cc5[nH]c(cc1n2)c(C)c5CCC(=O)O)C(CCC(=O)O)=C4C)c(C)c3C=C` [PpIX, Protoporphyrin IX, reference compound], the IC50 is 400 ± 200 nM in assay [3]; 10100 ± 700 nM in assay [4] (4 h, read-out: IC50 dark); 1300 ± 200 nM in assay [4] (light or radiation study, 10 min, read-out: IC50 480 nm (10 min, 3.1 J/cm^2)); 2800 ± 500 nM in assay [5] (CT26, 4 h, read-out: IC50 dark); 500 ± 200 nM in assay [5] (CT26, light or radiation study, 40 min, read-out: IC50 540 nm (40 min, 9.5 J/cm^2)); over 100000 nM in assay [1] (Homo sapiens, dark, 4 h incubation, compounds 1-3 as chloride salts, read-out: IC50 dark). The IC50 was determined as 2500 ± 100 nM in assay [1] (Homo sapiens, light or radiation study, 10 min, read-out: IC50 480 nm (10 min), irradiation 480 nm (10 min, 3.1 J/cm^2), compounds 1-3 as chloride salts); 2100 ± 300 nM in assay [1] (Homo sapiens, light or radiation study, 40 min, read-out: IC50 540 nm (40 min), irradiation 540 nm (40 min, 9.5 J/cm^2), compounds 1-3 as chloride salts); 1200 ± 300 nM in assay [6]. Further, the “PI (480 nm)” value is listed as 7.8 in assay [4] (U373, dark vs 480 nm (10 min, 3.1 J/cm^2)); 7.0 in assay [5] (CT-26, dark vs 480 nm (10 min, 3.1 J/cm^2)); over 40.0 in assay [1]; over 26.3 in assay [2]. The “PI (540 nm)” value is reported as 8.4 in assay [4] (U373, dark vs 540 nm (40 min, 9.5 J/cm^2)); 5.6 in assay [5] (CT-26, dark vs 540 nm (40 min, 9.5 J/cm^2)); over 47.6 in assay [1] (dark vs 540 nm (40 min, 9.5 J/cm^2)); over 30.3 in assay [2] (RPE-1, dark vs 540 nm (40 min, 9.5 J/cm^2)).

In the case of `F[P-](F)(F)(F)(F)F.F[P-](F)(F)(F)(F)F.Fc1ccc(C=Cc2ccnc(-c3cc(C=Cc4ccc(F)cc4)ccn3)c2)cc1.[Ru+2].c1ccc(-c2ccccn2)nc1.c1ccc(-c2ccccn2)nc1` [Compound 14, [Ru(bpy)2((E,E′)-4,4′-Bis[p-fluorostyryl]-2,2′-bipyridine)][PF6]2], the figures for the “PI (480 nm)” value in assay [1] and in assay [2] were over 125 and over 68, respectively. Further, the IC50 in assay [1] (setting [7]) is over 100000 nM; in assay [1] (setting [8]), 800 ± 100 nM.
